Test results published in the supplement of paper PMC10307832.

Compound: Cc1ccc2nc(NCCN)c3ncc(C)n3c2c1 + Nc1nc2[nH]cc(CCc3ccc(C(=O)N[C@@H](CCC(=O)O)C(=O)O)cc3)c2c(=O)[nH]1 [Pemetrexed] (partner 0.2 µM)
Experiment: relative viability (nuclei count vs DMSO), 5 days (fraction); higher = more cells survive
Settings: first compound 4 µM
Method in brief: (§1)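 Lung cancer cell lines were pin-tool dosed in 1536-well plates on the day after seeding, with either a lone drug or a fixed anchor-drug dose plus five library-drug doses (not always all listed) in √10 steps. Nuclei were counted on 4× images after 5 days. Relative viability is the ratio of treated-well to vehicle-well nuclei counts, with each value a median of duplicate plates.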

| Cell Line | relative viability |
| --- | --- |
| NCI-H358 | 0.192 |
| NCI-H2170 | 0.262 |
| H3255 | 0.525 |
| COR-L23 | 0.208 |
| COR-L 105 | 1.11 |
| LOU-NH91 | 0.495 |
| ChaGo-K-1 | 0.253 |
| NCI-H1793 | 0.766 |
| NCI-H2405 | 0.798 |
| HCC-44 | 0.709 |
| SK-MES-1 | 0.92 |
| SW 900 | 0.489 |
| NCI-H1395 | 0.56 |
| NCI-H1792 | 0.618 |
| NCI-H1563 | 0.705 |
| NCI-H1648 | 0.7 |
| NCI-H1944 | 0.587 |

Compound: O=C(/C=C/c1ccccc1)NC(NC(=S)Nc1cccc2cccnc12)C(Cl)(Cl)Cl [Salubrinal] + CC(C)C[C@H](NC(=O)[C@H](Cc1ccccc1)NC(=O)c1cnccn1)B(O)O [Bortezomib] (partner 0.002 µM)
Experiment: as above
Settings: first compound 0.08 µM
Method in brief: as §1

| Cell Line | relative viability |
| --- | --- |
| NCI-H727 | 0.748 |
| NCI-H1650 | 0.217 |
| EBC-1 | 0.719 |
| NCI-H1703 | 0.365 |
| NCI-H1993 | 1.09 |
| SW 1573 | 1.36 |
| NCI-H838 | 0.82 |
| LCLC-103H | 0.97 |
| NCI-H520 | 0.881 |
| NCI-H2126 | 1.11 |
| EMC-BAC-2 | 1.16 |
| NCI-H2085 | 1.07 |
| Calu-6 | 1.18 |
| HCC-366 | 1.21 |
| NCI-H1666 | 0.858 |
| NCI-H596 | 1.1 |
| NCI-H2087 | 0.755 |
| H3255 | 0.816 |
| COR-L23 | 1.16 |
| COR-L 105 | 0.756 |
| IA-LM | 1.01 |
| LOU-NH91 | 0.481 |
| ChaGo-K-1 | 1.06 |
| NCI-H2405 | 1.11 |
| HCC-44 | 0.799 |
| NCI-H1299 | 1.05 |
| NCI-H1792 | 1.2 |
| NCI-H1563 | 0.791 |
| ABC-1 | 0.322 |

Same assay, conditions: first compound 0.253 µM

| Cell Line | relative viability |
| --- | --- |
| NCI-H727 | 0.504 |
| NCI-H1650 | 0.227 |
| EBC-1 | 0.544 |
| NCI-H1703 | 0.268 |
| NCI-H1993 | 1.05 |
| SW 1573 | 0.779 |
| NCI-H838 | 0.749 |
| LCLC-103H | 0.971 |
| NCI-H520 | 0.439 |
| NCI-H2126 | 1.02 |
| EMC-BAC-2 | 0.974 |
| NCI-H2085 | 0.877 |
| Calu-6 | 0.856 |
| HCC-366 | 0.608 |
| NCI-H1666 | 0.732 |
| NCI-H596 | 0.807 |
| NCI-H2087 | 0.458 |
| H3255 | 0.826 |
| COR-L23 | 0.786 |
| COR-L 105 | 0.829 |
| IA-LM | 0.874 |
| LOU-NH91 | 0.406 |
| ChaGo-K-1 | 0.759 |
| NCI-H2405 | 0.963 |
| HCC-44 | 0.817 |
| NCI-H1299 | 0.971 |
| NCI-H1563 | 0.937 |
| ABC-1 | 0.35 |

Same assay, conditions: first compound 0.8 µM

| Cell Line | relative viability |
| --- | --- |
| NCI-H727 | 0.983 |
| NCI-H1650 | 0.256 |
| EBC-1 | 0.504 |
| NCI-H1703 | 0.242 |
| NCI-H1993 | 1.31 |
| SW 1573 | 1.27 |
| NCI-H838 | 0.983 |
| LCLC-103H | 1.2 |
| NCI-H520 | 0.793 |
| NCI-H2126 | 1.21 |
| EMC-BAC-2 | 1.09 |
| NCI-H2085 | 1.04 |
| Calu-6 | 1.11 |
| HCC-366 | 1.22 |
| NCI-H1666 | 0.746 |
| NCI-H596 | 1.01 |
| NCI-H2087 | 0.855 |
| H3255 | 1.23 |
| COR-L23 | 1.12 |
| COR-L 105 | 0.86 |
| IA-LM | 0.895 |
| LOU-NH91 | 0.55 |
| ChaGo-K-1 | 1.6 |
| NCI-H2405 | 1.02 |
| HCC-44 | 0.997 |
| NCI-H1299 | 1.02 |
| NCI-H1792 | 1.23 |
| NCI-H1563 | 0.859 |
| ABC-1 | 0.363 |

Same assay, conditions: first compound 2.53 µM

| Cell Line | relative viability |
| --- | --- |
| NCI-H727 | 0.862 |
| NCI-H1650 | 0.173 |
| EBC-1 | 0.501 |
| NCI-H1703 | 0.322 |
| NCI-H1993 | 1.01 |
| SW 1573 | 0.834 |
| NCI-H838 | 0.911 |
| LCLC-103H | 1 |
| NCI-H520 | 0.633 |
| NCI-H2126 | 1.22 |
| EMC-BAC-2 | 1.16 |
| NCI-H2085 | 1.03 |
| Calu-6 | 1.01 |
| HCC-366 | 1.08 |
| NCI-H1666 | 0.776 |
| NCI-H596 | 1.13 |
| NCI-H2087 | 0.809 |
| H3255 | 0.767 |
| COR-L23 | 0.998 |
| COR-L 105 | 0.816 |
| IA-LM | 0.68 |
| LOU-NH91 | 0.505 |
| ChaGo-K-1 | 1.2 |
| NCI-H2405 | 1.04 |
| HCC-44 | 0.922 |
| NCI-H1299 | 1.02 |
| NCI-H1792 | 0.92 |
| NCI-H1563 | 0.844 |
| ABC-1 | 0.303 |

Same assay, conditions: first compound 8 µM

| Cell Line | relative viability |
| --- | --- |
| NCI-H727 | 0.741 |
| NCI-H1650 | 0.243 |
| EBC-1 | 0.466 |
| NCI-H1703 | 0.293 |
| NCI-H1993 | 1.28 |
| SW 1573 | 0.982 |
| NCI-H838 | 0.608 |
| LCLC-103H | 1.15 |
| NCI-H520 | 0.435 |
| NCI-H2126 | 1.07 |
| EMC-BAC-2 | 1.17 |
| NCI-H2085 | 1.05 |
| Calu-6 | 0.918 |
| HCC-366 | 1.05 |
| NCI-H1666 | 0.984 |
| NCI-H596 | 1 |
| NCI-H2087 | 0.989 |
| H3255 | 0.761 |
| COR-L23 | 0.809 |
| COR-L 105 | 0.604 |
| IA-LM | 0.758 |
| LOU-NH91 | 0.477 |
| ChaGo-K-1 | 1.03 |
| NCI-H2405 | 1.05 |
| HCC-44 | 0.86 |
| NCI-H1299 | 1.02 |
| NCI-H1792 | 0.806 |
| NCI-H1563 | 0.776 |
| ABC-1 | 0.281 |
